In ChEMBL document CHEMBL1155648, “Three new arylobenzofurans from Onobrychis ebenoides and evaluation of their binding affinity for the estrogen receptor” (J Nat Prod, 2000):

Biological target: T1, Estrogen receptor (Homo sapiens, UniProt P03372)
T1 sequence (P03372 whole entry): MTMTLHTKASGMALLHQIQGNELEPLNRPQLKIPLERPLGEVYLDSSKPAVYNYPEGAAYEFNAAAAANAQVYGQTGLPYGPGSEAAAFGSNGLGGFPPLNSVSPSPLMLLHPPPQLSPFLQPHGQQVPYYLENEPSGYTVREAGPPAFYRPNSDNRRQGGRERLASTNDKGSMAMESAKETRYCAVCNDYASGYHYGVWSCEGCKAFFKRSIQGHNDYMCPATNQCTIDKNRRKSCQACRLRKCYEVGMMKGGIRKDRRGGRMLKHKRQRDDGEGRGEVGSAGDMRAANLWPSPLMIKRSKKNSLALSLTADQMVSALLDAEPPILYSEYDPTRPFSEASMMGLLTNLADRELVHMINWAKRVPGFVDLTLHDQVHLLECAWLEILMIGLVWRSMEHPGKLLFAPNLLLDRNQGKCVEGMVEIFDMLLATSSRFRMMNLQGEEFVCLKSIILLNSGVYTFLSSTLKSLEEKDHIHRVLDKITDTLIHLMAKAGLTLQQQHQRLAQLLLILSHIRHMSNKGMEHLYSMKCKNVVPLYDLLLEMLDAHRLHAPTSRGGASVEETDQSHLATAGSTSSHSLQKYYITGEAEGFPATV
Test: Displacement of [3H]estradiol from estrogen receptor

IC50 | SMILES
43 nM | COc1cc(O)c2c(C=O)c(-c3ccc(O)cc3O)oc2c1 [EBENFURAN II]
46 nM | COc1cc2oc(-c3ccc(O)cc3O)cc2cc1O [EBENFURAN I]
